pEC50: −log10 of the molar value.
Experiments:
[1] = target: T1, human muscarinic M1 receptor (Homo sapiens, UniProt P11229); test: Alphascreen Surefire phospho-ERK1/2 functional assay, M1; assay type: cell-based; settings: for EC50: CHO cells stably expressing human M1, phospho-ERK1/2, * = variable results, read-out: pEC50 M1 (converted); for Emax: CHO, read-out: % Emax cf. ACh, M1, CHO cells stably expressing human M1, relative to ACh
T1 sequence (P11229 1-460): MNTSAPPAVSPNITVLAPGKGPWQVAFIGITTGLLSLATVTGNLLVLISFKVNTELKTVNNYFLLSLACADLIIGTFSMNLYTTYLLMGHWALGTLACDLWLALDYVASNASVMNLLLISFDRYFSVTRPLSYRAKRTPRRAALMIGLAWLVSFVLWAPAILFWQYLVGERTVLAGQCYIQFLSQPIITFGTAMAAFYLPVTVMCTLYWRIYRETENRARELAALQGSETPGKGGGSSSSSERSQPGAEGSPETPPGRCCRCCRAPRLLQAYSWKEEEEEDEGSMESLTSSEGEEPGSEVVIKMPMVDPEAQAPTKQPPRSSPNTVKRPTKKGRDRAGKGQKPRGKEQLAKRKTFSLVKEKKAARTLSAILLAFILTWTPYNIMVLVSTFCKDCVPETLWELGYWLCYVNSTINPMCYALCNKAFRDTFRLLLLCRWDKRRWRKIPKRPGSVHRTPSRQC

[2] = target: T2, human muscarinic M4 receptor (Homo sapiens, UniProt P08173); test: Alphascreen Surefire phospho-ERK1/2 functional assay, M4; assay type: cell-based; settings: for EC50: CHO cells stably expressing human M4, phospho-ERK1/2, * = variable results, read-out: pEC50 M4 (converted); for Emax: CHO, read-out: % Emax cf. ACh, M4, CHO cells stably expressing human M4, relative to ACh
T2 construct: expressed in transfected cells
T2 sequence (P08173 1-479): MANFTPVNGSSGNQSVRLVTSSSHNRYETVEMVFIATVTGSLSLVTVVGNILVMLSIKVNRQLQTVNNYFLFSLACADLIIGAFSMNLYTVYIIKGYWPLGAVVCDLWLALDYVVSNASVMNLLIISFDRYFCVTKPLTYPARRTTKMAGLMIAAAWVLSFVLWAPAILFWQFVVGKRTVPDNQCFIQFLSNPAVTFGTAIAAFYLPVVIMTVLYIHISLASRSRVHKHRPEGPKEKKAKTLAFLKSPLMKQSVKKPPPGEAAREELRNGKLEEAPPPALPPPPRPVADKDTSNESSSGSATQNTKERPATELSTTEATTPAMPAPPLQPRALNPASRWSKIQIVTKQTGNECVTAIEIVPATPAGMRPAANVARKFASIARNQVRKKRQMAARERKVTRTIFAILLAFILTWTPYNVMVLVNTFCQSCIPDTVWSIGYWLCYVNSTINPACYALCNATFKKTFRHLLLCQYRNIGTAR

[3] = target: T3, human muscarinic M2 receptor (Homo sapiens, UniProt P08172); test: Alphascreen Surefire phospho-ERK1/2 functional assay, M2; settings: for Emax: CHO, read-out: % Emax cf. ACh, M2, CHO cells stably expressing human M2, relative to ACh
T3 sequence (P08172 1-466): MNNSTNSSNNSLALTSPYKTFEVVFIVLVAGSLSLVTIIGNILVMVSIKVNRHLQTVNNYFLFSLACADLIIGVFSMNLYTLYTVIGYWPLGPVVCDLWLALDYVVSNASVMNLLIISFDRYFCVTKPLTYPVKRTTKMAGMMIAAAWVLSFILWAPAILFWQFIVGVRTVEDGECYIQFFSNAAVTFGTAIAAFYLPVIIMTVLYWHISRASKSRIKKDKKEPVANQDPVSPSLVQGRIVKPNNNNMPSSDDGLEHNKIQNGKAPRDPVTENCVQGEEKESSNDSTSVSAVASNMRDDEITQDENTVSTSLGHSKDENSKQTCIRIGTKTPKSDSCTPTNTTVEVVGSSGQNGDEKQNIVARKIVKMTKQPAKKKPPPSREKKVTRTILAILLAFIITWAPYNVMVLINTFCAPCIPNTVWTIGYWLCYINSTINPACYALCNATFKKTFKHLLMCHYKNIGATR

[4] = target: human muscarinic M3 receptor (Homo sapiens, UniProt P20309); test: Alphascreen Surefire phospho-ERK1/2 functional assay, M3; settings: for pEC50: pEC50 M3, CHO cells stably expressing human M3, phospho-ERK1/2, * = variable results; for Emax: CHO, read-out: % Emax cf. ACh, M3, CHO cells stably expressing human M3, relative to ACh
human muscarinic M3 receptor, sequence (P20309 whole entry): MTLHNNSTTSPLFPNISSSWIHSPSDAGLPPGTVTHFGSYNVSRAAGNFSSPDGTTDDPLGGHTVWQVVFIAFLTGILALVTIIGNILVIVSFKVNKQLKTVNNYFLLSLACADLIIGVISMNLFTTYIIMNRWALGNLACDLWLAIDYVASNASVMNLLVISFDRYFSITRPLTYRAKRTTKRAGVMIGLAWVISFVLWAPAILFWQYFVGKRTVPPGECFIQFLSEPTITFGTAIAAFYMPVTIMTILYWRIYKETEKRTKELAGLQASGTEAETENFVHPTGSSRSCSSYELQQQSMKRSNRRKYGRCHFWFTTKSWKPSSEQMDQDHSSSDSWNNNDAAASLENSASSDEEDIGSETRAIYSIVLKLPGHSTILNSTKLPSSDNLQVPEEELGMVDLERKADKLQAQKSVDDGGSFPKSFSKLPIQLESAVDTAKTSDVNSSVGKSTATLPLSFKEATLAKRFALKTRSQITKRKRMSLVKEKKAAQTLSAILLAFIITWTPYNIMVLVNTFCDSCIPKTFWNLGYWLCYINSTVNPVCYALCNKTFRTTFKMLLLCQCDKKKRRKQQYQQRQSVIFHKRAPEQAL

Row | EC50 [1] | Emax [1] | EC50 [2] | Emax [2] | pEC50 [3] | pEC50 [4] | Emax [3] | Emax [4] | SMILES
1 | 251 nM | 36% | 20 nM | 82% | < 4.70 | < 4.70 | – | – | CCOC(=O)N1CCC2(CC(N3CCC(N4CCC[C@@H]4C(=O)OC)CC3)C2)C1 (single isomer, unassigned) [2-84 Isomer 2]
2 | 10000 nM | 32% | 50.1 nM | 89% | < 4.70 | < 4.70 | 14% | 4% | CCOC(=O)N1CCC2(CC(N3CCC(C4CCCN4C(C)=O)CC3)C2)C1 (single isomer, unassigned) [2-3 Isomer 2, ethyl 2-[4-(1-acetylpyrrolidin-2-yl)piperidin-1-yl]-6-azaspiro[3.4]octane-6-carboxylate]
3 | 631 nM | 45% | 79.4 nM | 77% | < 4.70 | < 4.70 | 2% | 0% | CCOC(=O)N1CCC2(CC(N3CCC(N4CCNC4=O)CC3)C2)C1 (single isomer, unassigned) [2-124 Isomer 2, ethyl 2-[4-(2-oxoimidazolidin-1-yl)piperidin-1-yl]-6-azaspiro[3.4]octane-6-carboxylate]
4 | 6310 nM | 71% | 79.4 nM | 92% | < 4.70 | < 4.70 | 21% | 9% | CCCn1nccc1C1CCN(C2CC3(CCN(C(=O)OCC)C3)C2)CC1 (single isomer, unassigned) [1-49 Isomer 2, ethyl 2-[4-(1-propyl-1H-pyrazol-5-yl)piperidin-1-yl]-6-azaspiro[3.4]octane-6-carboxylate]
5 | 3160 nM | 106% | 20 nM | 83% | < 4.70 | < 4.70 | 33% | 58% | CCOC(=O)N1CCC2(CC(N3CCC([C@@H]4CCCN4C(=O)N4CCC(F)(F)C4)CC3)C2)C1 (single isomer, unassigned) [2-37 Isomer 2]
6 | 12.6 nM | 92% | 6.31 nM | 99% | < 4.70 | < 4.70 | 66% | 4% | CCOC(=O)N1CCC2(CC(N3CCC([C@@H]4CCCN4C(=O)NCC(F)(F)F)CC3)C2)C1 (single isomer, unassigned) [2-26 Isomer 2]
7 | 501 nM | 31% | 31.6 nM | 62% | < 4.70 | < 4.70 | 1% | 0% | CCOC(=O)N1CCC2(CC(N3CCC(N4CCCC4=O)CC3)C2)C1 (single isomer, unassigned) [2-111 Isomer 2, ethyl 2-[4-(2-oxopyrrolidin-1-yl)piperidin-1-yl]-6-azaspiro[3.4]octane-6-carboxylate]
8 | 3160 nM | 57% | 15.8 nM | 132% | < 4.70 | < 4.70 | 30% | 16% | CCOC(=O)N1CCC2(CC(N3CCC(C4CCCN4C(=O)CC)CC3)C2)C1 (single isomer, unassigned) [2-6 Isomer 2, ethyl 2-[4-(1-propanoylpyrrolidin-2-yl)piperidin-1-yl]-6-azaspiro[3.4]octane-6-carboxylate]
9 | 316 nM | 34% | 10 nM | 81% | < 4.70 | < 4.70 | 3% | 5% | CCOC(=O)N1CCC2(CC(N3CCC([C@@H]4CCCN4C(=O)OCC(F)(F)F)CC3)C2)C1 (single isomer, unassigned) [2-48 Isomer 2]
10 | 2510 nM | 46% | 200 nM | 76% | < 4.70 | 6.10 | 99% | 53% | CCOC(=O)N1CCC2(CC(N3CCC(c4nnc[nH]4)CC3)C2)C1 (single isomer, unassigned) [1-26 Isomer 2, ethyl 2-[4-(4H-1,2,4-triazol-3-yl)piperidin-1-yl]-6-azaspiro[3.4]octane-6-carboxylate]
11 | 6310 nM | 99% | 63.1 nM | 96% | < 4.70 | < 4.70 | 4% | 7% | CCOC(=O)N1CCC2(CC(N3CCC(N4C(=O)CCC4(C)C)CC3)C2)C1 (single isomer, unassigned) [2-117 Isomer 2, ethyl 2-[4-(2,2-dimethyl-5-oxopyrrolidin-1-yl)piperidin-1-yl]-6-azaspiro[3.4]octane-6-carboxylate]
12 | 3160 nM | 28% | 251 nM | 67% | < 4.70 | < 4.70 | 11% | 7% | CCOC(=O)N1CCC2(CC(N3CCC([C@@H]4C[C@H](F)CN4C(=O)CC)CC3)C2)C1 (single isomer, unassigned) [2-59 Isomer 2]
13 | 251 nM | 103% | 25.1 nM | 96% | < 4.70 | < 4.70 | 2% | 4% | CCOC(=O)N1CCC2(CC(N3CCC(c4nccc(N)n4)CC3)C2)C1 (single isomer, unassigned) [3-9 Isomer 2, ethyl 2-[4-(4-aminopyrimidin-2-yl)piperidin-1-yl]-6-azaspiro[3.4]octane-6-carboxylate]
14 | 251 nM | 34% | 63.1 nM | 60% | < 4.70 | < 4.70 | 0% | 4% | CCOC(=O)N1CCC2(CC(N3CCC([C@@H]4CCCN4C(=O)N(C)Cc4ccccn4)CC3)C2)C1 (single isomer, unassigned) [2-63 Isomer 2]
15 | 501 nM | 42% | 63.1 nM | 74% | < 4.70 | < 4.70 | 3% | 8% | CCOC(=O)N1CCC2(CC(N3CCC(N4CCCNC4=O)CC3)C2)C1 (single isomer, unassigned) [4-8 Isomer 1, ethyl 2-[4-(2-oxotetrahydropyrimidin-1(2H)-yl)piperidin-1-yl]-6-azaspiro[3.4]octane-6-carboxylate]
16 | 10000 nM | 69% | 158 nM | 57% | < 4.70 | < 4.70 | 7% | 24% | CCOC(=O)N1CCC2(CC(N3CCC([C@H]4CCCN4C(=O)OC)CC3)C2)C1 (single isomer, unassigned) [2-13 Isomer 2]
17 | 12.6 nM | 97% | 12.6 nM | 82% | < 4.70 | < 4.70 | 2% | 1% | CCOC(=O)N1CCC2(CC(N3CCC(c4cccc(OC)n4)CC3)C2)C1 (single isomer, unassigned) [3-13 Isomer 2, ethyl 2-[4-(6-methoxypyridin-2-yl)piperidin-1-yl]-6-azaspiro[3.4]octane-6-carboxylate]

From patent publication US9926297B2, “Bicyclic AZA compounds as muscarinic M1 receptor and/or M4 receptor agonists” (Heptares Therapeutics Limited, priority 2014, dated 2018)
